pIC50, pKd: −log10 of the molar value. Where a name gives a salt, the structure may show the parent alone.

In one series the target is T1, PI3Kβ (Homo sapiens, UniProt P42338).
T1 construct: purchased DiscoveRx Corporation, San Diego (contract service, KINOMEscan)
Description: Enzyme binding assay (KINOMEscan, DiscoveRx). Conditions: PIK3Cβ_h, read-out: Kd PIK3Cβ_h. In a few lines: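 Using the KINOMEscan format, the enzyme binding affinity of each compound was determined. Each value is the inhibitor binding constant, Kd (nM).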

Series [1] has as its target T2, kinase enzymes (Homo sapiens, UniProt P42345).
T2 construct: purchased DiscoveRx Corporation, San Diego (contract service, KINOMEscan)
Description: Enzyme binding assay (KINOMEscan, DiscoveRx), further kinases of Table A. The conditions noted are these: MTOR_h. Put shortly:
(§1)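 Uses KINOMEscan technology to determine binding affinity toward the kinase enzymes.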

Series [2] deals with T3, kinase enzymes (Homo sapiens, UniProt P48736).
T3 construct: purchased DiscoveRx Corporation, San Diego (contract service, KINOMEscan)
The description is as above. Conditions: PIK3Cγ_h. In a few lines: as §1

For series [3], the target named is T4, kinase enzymes (Homo sapiens, UniProt P42336).
T4 construct: purchased DiscoveRx Corporation, San Diego (contract service, KINOMEscan)
Described as above. Conditions: PIK3Cα_h. Put shortly: as §1

The target in the next series is T5, PI3Kδ (Homo sapiens, UniProt O00329).
T5 construct: purchased DiscoveRx Corporation, San Diego (contract service, KINOMEscan)
T5 sequence (O00329 1-1044): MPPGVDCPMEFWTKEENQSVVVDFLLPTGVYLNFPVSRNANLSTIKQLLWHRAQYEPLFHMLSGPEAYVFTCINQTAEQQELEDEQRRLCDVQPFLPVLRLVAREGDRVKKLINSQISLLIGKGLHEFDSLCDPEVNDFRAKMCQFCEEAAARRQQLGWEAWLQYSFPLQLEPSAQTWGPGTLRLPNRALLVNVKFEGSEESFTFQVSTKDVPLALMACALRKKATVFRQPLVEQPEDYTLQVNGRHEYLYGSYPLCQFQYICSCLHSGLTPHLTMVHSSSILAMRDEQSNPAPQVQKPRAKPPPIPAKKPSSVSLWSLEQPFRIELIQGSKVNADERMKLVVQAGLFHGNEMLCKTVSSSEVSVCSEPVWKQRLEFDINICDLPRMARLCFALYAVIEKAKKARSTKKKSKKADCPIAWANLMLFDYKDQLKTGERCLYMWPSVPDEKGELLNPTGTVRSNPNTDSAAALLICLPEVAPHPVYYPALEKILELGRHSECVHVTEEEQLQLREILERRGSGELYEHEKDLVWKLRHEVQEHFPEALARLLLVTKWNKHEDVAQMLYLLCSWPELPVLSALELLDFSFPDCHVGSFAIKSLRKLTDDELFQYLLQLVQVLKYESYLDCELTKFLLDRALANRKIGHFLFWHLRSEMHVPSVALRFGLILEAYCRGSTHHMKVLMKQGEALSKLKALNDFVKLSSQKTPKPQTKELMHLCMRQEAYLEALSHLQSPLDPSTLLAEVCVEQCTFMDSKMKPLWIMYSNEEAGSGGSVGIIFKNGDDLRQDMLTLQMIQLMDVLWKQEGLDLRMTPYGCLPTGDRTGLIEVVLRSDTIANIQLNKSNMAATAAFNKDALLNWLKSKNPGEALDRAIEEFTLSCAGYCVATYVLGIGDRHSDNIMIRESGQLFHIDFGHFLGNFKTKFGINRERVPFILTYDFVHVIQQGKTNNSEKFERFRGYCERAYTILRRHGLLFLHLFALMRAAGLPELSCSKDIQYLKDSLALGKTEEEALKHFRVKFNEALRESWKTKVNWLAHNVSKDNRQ
As to the kind of experiment: Enzyme binding assay (KINOMEscan, DiscoveRx). Conditions: PIK3Cδ_h. Put shortly:
as §1

For series [4], the system named is Akt phosphorylated at Ser473 in PC-3 cells. As to the kind of experiment: Cellular assay: phosphorylation of Akt at Ser473 in PC-3 cells (MSD ELISA). It counts as cell-based. Conditions: PC-3 cells, 60 min compound incubation, MSD ELISA; read-out: IC50 pAkt_S473. Put shortly:
(§2)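 Compound treatment of PC-3 cells lasted 60 min at 37° C (0.3% DMSO). Lysates were then applied to plates carrying capture antibodies for the relevant phospho-site, and bound Akt was detected with an electrochemiluminescent anti-total Akt antibody; IC50s derive from five-point curves.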
A general note: In an ELISA, binding on a coated surface is turned into a signal by an enzyme label.

Series [5] concerns Akt phosphorylated at Thr308 in PC-3 cells. As to the kind of experiment: Cellular assay: phosphorylation of Akt at Thr308 in PC-3 cells (MSD ELISA). It counts as cell-based. The conditions noted are these: PC-3 cells, 60 min compound incubation, MSD ELISA; read-out: IC50 pAkt_Thr308. In a few lines: as §2

T3 sequence (P48736 whole entry): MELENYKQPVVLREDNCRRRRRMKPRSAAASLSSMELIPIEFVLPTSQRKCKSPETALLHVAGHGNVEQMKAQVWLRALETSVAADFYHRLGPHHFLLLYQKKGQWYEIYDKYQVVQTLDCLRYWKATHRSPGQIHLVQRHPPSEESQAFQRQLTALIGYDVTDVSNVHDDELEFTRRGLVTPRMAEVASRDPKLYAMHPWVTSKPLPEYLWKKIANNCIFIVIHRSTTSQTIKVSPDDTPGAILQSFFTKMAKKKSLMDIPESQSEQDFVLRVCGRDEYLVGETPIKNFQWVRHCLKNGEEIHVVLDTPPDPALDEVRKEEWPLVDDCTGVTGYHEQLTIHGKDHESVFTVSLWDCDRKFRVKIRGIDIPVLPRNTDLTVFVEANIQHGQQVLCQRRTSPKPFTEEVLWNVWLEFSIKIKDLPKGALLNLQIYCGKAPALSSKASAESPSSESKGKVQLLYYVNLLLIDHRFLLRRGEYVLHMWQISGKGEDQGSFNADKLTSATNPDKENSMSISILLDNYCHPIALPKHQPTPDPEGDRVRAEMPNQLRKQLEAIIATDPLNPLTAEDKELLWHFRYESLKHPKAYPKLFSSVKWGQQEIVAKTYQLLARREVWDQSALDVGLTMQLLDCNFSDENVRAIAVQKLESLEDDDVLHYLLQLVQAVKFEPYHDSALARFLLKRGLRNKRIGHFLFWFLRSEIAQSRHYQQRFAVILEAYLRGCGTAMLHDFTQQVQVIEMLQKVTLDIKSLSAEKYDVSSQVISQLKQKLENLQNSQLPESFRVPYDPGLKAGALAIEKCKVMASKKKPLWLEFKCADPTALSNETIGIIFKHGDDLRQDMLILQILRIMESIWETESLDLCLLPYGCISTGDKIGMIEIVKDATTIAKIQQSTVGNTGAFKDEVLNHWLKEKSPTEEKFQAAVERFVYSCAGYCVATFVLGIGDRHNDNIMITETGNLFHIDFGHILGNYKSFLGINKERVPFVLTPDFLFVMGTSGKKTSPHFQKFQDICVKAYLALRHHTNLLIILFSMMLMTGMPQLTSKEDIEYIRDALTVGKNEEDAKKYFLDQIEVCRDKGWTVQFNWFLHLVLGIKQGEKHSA
T1 sequence (P42338 whole entry): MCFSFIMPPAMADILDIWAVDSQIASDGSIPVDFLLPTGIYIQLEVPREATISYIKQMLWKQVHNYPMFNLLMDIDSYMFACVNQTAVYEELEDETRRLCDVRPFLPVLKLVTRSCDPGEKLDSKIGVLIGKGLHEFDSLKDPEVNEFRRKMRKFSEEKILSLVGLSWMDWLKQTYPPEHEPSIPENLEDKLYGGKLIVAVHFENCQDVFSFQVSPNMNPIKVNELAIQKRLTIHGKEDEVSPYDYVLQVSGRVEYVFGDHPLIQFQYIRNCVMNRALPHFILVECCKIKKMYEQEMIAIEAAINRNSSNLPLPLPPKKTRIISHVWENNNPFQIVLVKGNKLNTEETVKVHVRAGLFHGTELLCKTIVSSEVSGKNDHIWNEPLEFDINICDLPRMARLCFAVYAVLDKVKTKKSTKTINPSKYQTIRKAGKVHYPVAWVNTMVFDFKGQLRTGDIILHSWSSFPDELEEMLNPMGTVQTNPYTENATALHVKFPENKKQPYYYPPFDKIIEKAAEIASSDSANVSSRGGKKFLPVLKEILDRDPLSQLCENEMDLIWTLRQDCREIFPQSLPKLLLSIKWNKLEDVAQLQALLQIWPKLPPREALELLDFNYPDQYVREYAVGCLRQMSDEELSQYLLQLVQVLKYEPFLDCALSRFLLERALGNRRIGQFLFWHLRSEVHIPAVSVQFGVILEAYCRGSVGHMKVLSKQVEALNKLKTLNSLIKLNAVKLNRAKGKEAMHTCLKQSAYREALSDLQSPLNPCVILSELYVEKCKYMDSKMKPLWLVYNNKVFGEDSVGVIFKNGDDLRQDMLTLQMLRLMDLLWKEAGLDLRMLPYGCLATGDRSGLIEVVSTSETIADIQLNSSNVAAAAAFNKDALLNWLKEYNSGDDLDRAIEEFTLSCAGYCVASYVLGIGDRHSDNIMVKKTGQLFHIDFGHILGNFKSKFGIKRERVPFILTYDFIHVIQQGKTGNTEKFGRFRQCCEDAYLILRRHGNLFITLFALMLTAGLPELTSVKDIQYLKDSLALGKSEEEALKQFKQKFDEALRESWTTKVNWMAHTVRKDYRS
T4 sequence (P42336 whole entry): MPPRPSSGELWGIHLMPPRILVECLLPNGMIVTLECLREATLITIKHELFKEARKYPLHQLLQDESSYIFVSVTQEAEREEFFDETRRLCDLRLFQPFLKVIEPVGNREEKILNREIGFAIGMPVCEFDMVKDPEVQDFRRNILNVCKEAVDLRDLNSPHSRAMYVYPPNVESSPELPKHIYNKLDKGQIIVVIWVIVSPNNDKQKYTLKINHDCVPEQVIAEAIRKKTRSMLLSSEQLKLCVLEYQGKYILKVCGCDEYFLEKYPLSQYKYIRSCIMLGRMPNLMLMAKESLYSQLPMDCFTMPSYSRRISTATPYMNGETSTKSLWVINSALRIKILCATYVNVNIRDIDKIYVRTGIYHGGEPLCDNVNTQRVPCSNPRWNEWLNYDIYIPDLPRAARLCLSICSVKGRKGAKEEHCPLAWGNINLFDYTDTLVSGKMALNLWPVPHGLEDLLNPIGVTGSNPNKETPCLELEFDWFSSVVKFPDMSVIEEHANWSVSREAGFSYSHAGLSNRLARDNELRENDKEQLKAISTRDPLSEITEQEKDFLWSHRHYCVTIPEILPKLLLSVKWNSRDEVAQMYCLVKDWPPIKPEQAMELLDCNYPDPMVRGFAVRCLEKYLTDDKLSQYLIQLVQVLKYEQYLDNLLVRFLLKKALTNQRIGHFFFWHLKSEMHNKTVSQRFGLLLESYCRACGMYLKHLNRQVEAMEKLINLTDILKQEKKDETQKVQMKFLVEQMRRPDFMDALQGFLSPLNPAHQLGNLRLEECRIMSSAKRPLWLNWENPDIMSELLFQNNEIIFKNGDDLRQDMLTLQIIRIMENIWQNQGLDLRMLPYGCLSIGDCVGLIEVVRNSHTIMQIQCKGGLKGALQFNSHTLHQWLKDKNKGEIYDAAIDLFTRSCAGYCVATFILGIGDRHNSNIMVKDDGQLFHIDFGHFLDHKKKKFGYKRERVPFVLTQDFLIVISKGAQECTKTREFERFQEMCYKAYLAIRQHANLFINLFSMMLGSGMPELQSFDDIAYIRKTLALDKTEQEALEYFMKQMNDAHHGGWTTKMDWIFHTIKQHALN

What is called pKd is the negative decadic logarithm of the Kd, by convention in mol/L. The term melting point denotes the temperature of the solid-liquid transition. Take `CC(Nc1ccc(F)c(F)c1)c1cc(C(=O)NC2CCNC2)cc2ncc(N3CCOCC3)nc12` (centres unmarked) [Compound 325a]: the melting point worked out at 144 °C. Besides, the pKd at PI3Kβ was 5.88. Besides, the pKd at kinase enzymes [1] is below 4.52. At kinase enzymes [2], this molecule showed a pKd of 4.85. Also, the pKd at kinase enzymes [3] is 4.97. This molecule had a negative logarithm of the Kd (pKd) at PI3Kδ of 4.94.
For `Cc1ccc(NC(C)c2cc(C(=O)NCCN(C)C)cc3ncc(N4CCOCC4)nc23)cc1F` (single isomer, unassigned) [Compound 407b], the melting point is 105 °C. The pKd on PI3Kβ was 6.47. Also, at kinase enzymes [1], the pKd is below 4.52. Moreover, the negative-log Kd (pKd) at kinase enzymes [2] was 5.42. The pKd at kinase enzymes [3] is 5.36. In addition, on PI3Kδ, the pKd is 5.53.
`CC(Oc1ccc(F)c(F)c1)c1cc(C(=O)N2CCN3CCC[C@@H]3C2)cc2ncc(N3CCOCC3)nc12` (mixture of isomers) [Compound 375] yielded a melting point of 80 °C. Moreover, the pKd on PI3Kβ is 6.93. At kinase enzymes [1], this molecule gave a negative logarithm of the Kd (pKd) below 4.52. On kinase enzymes [2], this molecule had a negative logarithm of the Kd (pKd) below 4.52. The same molecule had a pKd on kinase enzymes [3] of 4.73. At PI3Kδ, this molecule showed a negative logarithm of the Kd (pKd) of 5.66.
Molecule `COC(=O)c1cc(C(C)Nc2cccc(F)c2)c2nc(N3CCOCC3)cnc2c1` (single isomer, unassigned) [Compound 262a] gave a melting point of 199.7 °C. Further, the pKd at PI3Kβ was 5.75. In addition, the pKd at kinase enzymes [1] was below 4.52. Also, at kinase enzymes [2], the pKd was below 4.52. The same molecule gave a pKd at kinase enzymes [3] below 4.52. Further, the pKd on PI3Kδ was 4.61.
On to `CC(Nc1cccc(F)c1)c1cc(C(=O)N2CC[C@@H](O)C2)cc2ncc(N3CCOCC3)nc12` (single isomer, unassigned) [Compound 321b], for which the melting point turned out to be 128 °C. Moreover, at PI3Kβ, the negative-log Kd (pKd) was 6.78. Besides, the negative-log Kd (pKd) on kinase enzymes [1] is below 4.52. This molecule also had a negative logarithm of the Kd (pKd) on kinase enzymes [2] below 4.52. At kinase enzymes [3], the pKd was 4.73. Also, on PI3Kδ, the negative-log Kd (pKd) was 5.13.
`COC(=O)c1cc(C(C)Nc2cc(F)c(F)c(F)c2)c2nc(N3CCOCC3)cnc2c1` (centres unmarked) [Compound 266]: the melting point is 220 °C.
Regarding `COC1CN(Cc2cc(C(C)Nc3cc(F)cc(F)c3)c3nc(N4CCOCC4)cnc3c2)CC1OC` (single isomer, unassigned) (as salt: hydrochloride) [Compound 205], the melting point came out at 80 °C.
In turn, `CC(Nc1cc(F)cc(F)c1)c1cc(CN2CCO[C@@H](CO)C2)cc2ncc(N3CCOCC3)nc12` (single isomer, unassigned) (as salt: HCl) [Compound 193] registered a melting point of 80 °C.
Consider `[2H]C([2H])(O)C([2H])([2H])NC(=O)c1cc(C(C)Nc2cccc(F)c2)c2nc(N3CCOCC3)cnc2c1` (single isomer, unassigned) [Compound 408b], for which the melting point is 123 °C. The negative logarithm of the Kd (pKd) on PI3Kβ is 6.49. At kinase enzymes [1], the pKd is below 4.52. At kinase enzymes [2], the pKd is 5.09. This molecule also showed a pKd on kinase enzymes [3] of 4.63. Further, the pKd at PI3Kδ is 4.76.
`[2H]C([2H])(O)C([2H])([2H])NC(=O)c1cc(C(C)Nc2cccc(F)c2)c2nc(N3CCOCC3)cnc2c1` (single isomer, unassigned) [Compound 408a] had a melting point of 127 °C. Also, the pKd on PI3Kβ is 8.52. Besides, the negative logarithm of the Kd (pKd) at kinase enzymes [1] is 4.58. In addition, on kinase enzymes [2], the pKd is 5.37. At kinase enzymes [3], the pKd was 5.84. The same molecule gave a pKd on PI3Kδ of 6.48.
Take `C[C@@H](Nc1cc(F)cc(F)c1)c1cc(C(=O)NCCN(C)C)cc2ncc(N3CCOCC3)nc12` (as salt: HCl) [Compound 184a]: the melting point is 80 °C.
With `COC(=O)c1cc(C(C)Nc2cccc(F)c2)c2nc(N3CCOCC3)cnc2c1` (single isomer, unassigned) [Compound 262b], the melting point worked out at 199.5 °C. In addition, the negative logarithm of the Kd (pKd) at PI3Kβ was 4.94. On kinase enzymes [1], this molecule gave a pKd below 4.52. The molecule further gave a negative-log Kd (pKd) at kinase enzymes [2] below 4.52. Besides, the negative-log Kd (pKd) at kinase enzymes [3] was below 4.52. This molecule also gave a pKd on PI3Kδ below 4.52.
`CC(Nc1cc(F)cc(F)c1)c1cc(C(=O)NC[C@H](C)O)cc2ncc(N3CCOCC3)nc12` (single isomer, unassigned) [Compound 246b]: the melting point was 75 °C. Moreover, on PI3Kβ, the pKd is 4.78. Further, the pKd on kinase enzymes [1] was below 4.52. In addition, at kinase enzymes [2], the negative-log Kd (pKd) is 5.21. Moreover, the pKd at kinase enzymes [3] is below 4.52. The pKd at PI3Kδ is below 4.52.
With `C[C@@H](Nc1cc(F)cc(F)c1)c1cc(C(=O)NCCN(C)C)cc2ncc(N3CCOCC3)nc12` (as salt: sulfuric acid salt) [Compound 184b], the melting point was 270 °C.
The molecule `Cc1ccc(NC(C)c2cc(C(=O)NCCN(C)C)cc3ncc(N4CCOCC4)nc23)cc1F` (single isomer, unassigned) [Compound 407a] gave a melting point of 115 °C. The pKd on PI3Kβ is 8.15. Moreover, the pKd on kinase enzymes [1] was 4.98. The molecule also had a negative-log Kd (pKd) at kinase enzymes [2] of 5.10. Besides, on kinase enzymes [3], the pKd is 5.69. On PI3Kδ, this molecule showed a negative-log Kd (pKd) of 6.14.
Molecule `CC1CN(C(=O)c2cc(C3CCCN3c3cc(F)cc(F)c3)c3nc(N4CCOCC4)cnc3c2)CC(C)N1` (centres unmarked) [Compound 39] gave a melting point of 80 °C.
`C[C@@H](Nc1cc(F)cc(F)c1)c1cc(C(=O)NCCN(C)C)cc2ncc(N3CCOCC3)nc12` (as salt: sulfonic acid salt) [Compound 184c] registered a melting point of 74 °C.
`CC(Oc1cc(F)cc(F)c1)c1cc(C(=O)NCCO)cc2ncc(N3CCOCC3)nc12` (single isomer, unassigned) [Compound 200] showed a melting point of 115 °C. Besides, the pKd on PI3Kβ is 5.62. The pKd at kinase enzymes [1] was below 4.52. At kinase enzymes [2], the pKd is below 4.52. Moreover, the pKd on kinase enzymes [3] is below 4.52. Also, the pKd at PI3Kδ is below 4.52.
In the case of `CC(Nc1cc(F)cc(F)c1)c1cc(CNCC(F)(F)F)cc2ncc(N3CCOCC3)nc12` (single isomer, unassigned) (as salt: HCl) (hydrate or solvate) [Compound 163], the melting point amounted to 239 °C.
In turn, `CC(Nc1cccc(F)c1)c1cc(C(=O)N2CCC[C@H](O)C2)cc2ncc(N3CCOCC3)nc12` (single isomer, unassigned) [Compound 320b] came in with a melting point of 136 °C. Moreover, the negative logarithm of the Kd (pKd) on PI3Kβ is 7.16. The molecule also gave a negative logarithm of the Kd (pKd) on kinase enzymes [1] below 4.52. Moreover, the negative logarithm of the Kd (pKd) on kinase enzymes [2] is below 4.52. For the same molecule, at kinase enzymes [3], the negative logarithm of the Kd (pKd) was 4.94. The pKd on PI3Kδ is 5.29.
Molecule `CC(Nc1cc(F)cc(F)c1)c1cc(CN2CCO[C@H](CO)C2)cc2ncc(N3CCOCC3)nc12` (single isomer, unassigned) (as salt: HCl) [Compound 194] yielded a melting point of 80 °C.
What is called pIC50 is the negative decadic logarithm of the IC50, by convention in mol/L. In the case of `CNCCN(C)C(=O)c1cc(C(C)Nc2cc(F)c(F)c(F)c2)c2nc(N3CCOCC3)cnc2c1` (single isomer, unassigned) [Compound 335a], the pKd on PI3Kβ is 9.70; at kinase enzymes [1] it was 4.73; on kinase enzymes [2] it was 5.91; at kinase enzymes [3], 6.33; on PI3Kδ it was 7.48. The negative-log IC50 (pIC50) is 8.30 in series [4] and 8.70 in series [5].
As for `CNCCNC(=O)c1cc(C(C)Oc2cc(F)cc(F)c2)c2nc(N3CCOCC3)cnc2c1` (single isomer, unassigned) [Compound 166], the pKd at PI3Kβ is 7.72; at kinase enzymes [1] it was 4.66; at kinase enzymes [2] it was 4.83; on kinase enzymes [3] it was 4.78; at PI3Kδ, 5.39. Further, the pIC50 in series [4] and in series [5] was below 6.29 each time.

The values above are taken from patent US10526316B2, “Quinoxaline and pyridopyrazine derivatives as PI3Kβ inhibitors” (Janssen Pharmaceutica NV, priority 2015, dated 2020).
